Values quoted from earlier work as cited in patent publication US7375097B2, “Increasing ATP availability by inhibition of creatine kinase (CK) leakage resulting from high-intensity exercise” (Aplodan Formulations Ltd., priority 2006, dated 2008).
Read-outs that look alike come from different tables or passages of the source.

How the values were obtained:
[1] = oral administration, test animals, up to about, at 48 hours
[2] = alkaline and acidic solutions
[3] = system: leakage of CK in acute myocardial infarction; settings: human patients suffering from acute myocardial infarction
[4] = in vivo
[5] = system: serum CK levels increased by isoprenaline; settings: rats; CK increased by administration of isoprenaline
[6] = system: skeletal muscle performance; settings: clinical trials
hand-grip strength = settings: unaffected in the placebo group
[7] = in vivo; remark: listed apart in the source
[8] = in vitro
[9] = system: patients with inadequate coronary blood flow
[10] = system: models of myocardial infarction

Q: Which “absorption by the intestine” value [1] does the source give for `CN(CCOP(=O)(O)O)C(=N)N` [2-(carbamimidoyl-methyl-amino)ethoxyphosphonic acid] here?
A: The value was “about 60%”.

Q: What about the stability in solution [2] of the same molecule?
A: The stability in solution was “stable in both alkaline and acidic solutions”.

Q: What about the “leakage of CK and several other enzymes” value [3] of the same molecule?
A: The value was “reduce the leakage of CK as well as several other enzymes”.

Q: And the muscular performance (elderly subjects)?
A: Its muscular performance is “improved muscular performance”.

Q: And the cardioprotection [4]?
A: Its cardioprotection is “afford cardioprotection”.

Q: And the “serum CK levels” value [5]?
A: The value was “reduce serum CK levels”.

Q: What about the “capacity to perform physical activity” value [6] of the same molecule?
A: The value was “increase the capacity to perform physical activity”.

Q: What about the muscular development [6] of the same molecule?
A: The muscular development was “improve muscular development”.

Q: What about the hand-grip strength (hand-grip strength) of the same molecule?
A: The hand-grip strength was “hand-grip strength was improved”.

Q: And the “tolerability / side effects” value [7]?
A: Its value is “well tolerated and without side effects”.

Q: And the dephosphorylation to creatine ([8]; blood and muscle)?
A: Its dephosphorylation to creatine is “less so”.

Q: What about the dephosphorylation to creatine ([8]; kidney, intestine and liver) of the same molecule?
A: Its dephosphorylation to creatine is “dephosphorylated to creatine to some degree”.

Q: What about the cardiac parameters [9] of the same molecule?
A: The cardiac parameters was “improve cardiac parameters”.

Q: And the “protection against cellular necrosis” value [10]?
A: Its value is “protective against cellular necrosis”.
